Series [1] deals with female diabetic db/db mice. The series is described as follows: Acute effects after s.c. treatment on blood glucose in non-fasting female diabetic db/db mice. In kind it is in vivo. Particulars: single 30 μg/kg s.c. The essentials: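 Non-fasted female db/db mice (about 12 weeks old, n=8) given a single s.c. dose of PBS vehicle or 30 μg/kg test article, with lean mice given vehicle as reference. Tail-blood glucose measured by glucometer from −30 min to 24 h post-dose. Glucose AUC over 24 h by trapezoid method; db/db groups compared by ANOVA with Dunnett's test against db/db vehicle.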

Series [2] is described as follows: Thioflavin T (ThT) assay for physical stability (fibrillation). In kind it is physicochemical. Conditions: 3 mg/ml, 100 mM acetate pH 4.5 with m-cresol, 37° C. shaking. Put shortly: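 Peptides at 3 mg/ml final with 100 μM ThT final in 100 mM acetate pH 4.5 containing 2.7 mg/mL m-cresol, eight replicates. Stressed at 37° C by repeated cycles of 10 s shaking at 960 rpm and 50 s rest. Fluorescence read every 20 minutes; lag time in hours taken from the sigmoidal kinetic curve.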

Series [3] in a line: Chemical stability assessment, UPLC-UV purity loss in buffer system A. The class given is physicochemical. Conditions: 1 mg/ml, 25 mM acetate buffer pH 4.5 with m-cresol. The essentials: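 Peptide at 1 mg/mL pure compound (purity-corrected) in 25 mM acetate buffer pH 4.5 with L-methionine, m-cresol and glycerol was sterile-filtered and stored 28 days at 5 and 40° C. UPLC-UV purity (peptide peak area/total area) was compared with the starting value to give relative purity loss in %.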

Numbered stars: 1 amine (or outer) side, 2 acyl side, 3 side chain; on linkers, the order of the positions; unused ones are H or OH. Square brackets hold non-standard residues; d marks the D form. Side chains are listed from the residue outwards. Peptide text beside a SMILES is read from it. * marks the point of attachment. γGlu = O=C(O)[C@H](CCC(=O)[*:2])N[*:1]; Palmitoyl = CCCCCCCCCCCCCCCC(=O)*; Aib = CC(C)(N)C(=O)O Some results are limits rather than exact numbers.

For `CCCCCCCCCCCCCCCC(=O)N[C@@H](CCC(=O)N[C@@H](CCC(=O)NCCCC[C@H](NC(=O)[C@H](CC(C)C)NC(=O)[C@H](CCCCN)NC(=O)[C@H](CO)NC(=O)[C@H](CC(C)C)NC(=O)[C@H](CC(=O)O)NC(=O)[C@H](CO)NC(=O)[C@@H](NC(=O)[C@H](Cc1ccccc1)NC(=O)[C@@H](NC(=O)CNC(=O)[C@H](Cc1c[nH]cn1)NC(=O)C(C)(C)NC(=O)[C@@H](N)Cc1c[nH]cn1)[C@@H](C)O)[C@@H](C)O)C(=O)N[C@@H](CCC(=O)O)C(=O)N[C@@H](CCC(=O)O)C(=O)N[C@@H](CCC(N)=O)C(=O)N[C@@H](CCCNC(=N)N)C(=O)N[C@@H](CCC(N)=O)C(=O)NC(C)(C)C(=O)N[C@@H](CCC(=O)O)C(=O)N[C@@H](Cc1ccccc1)C(=O)N[C@H](C(=O)N[C@@H](CCC(=O)O)C(=O)N[C@@H](Cc1c[nH]c2ccccc12)C(=O)N[C@@H](CC(C)C)C(=O)N[C@@H](CCCCN)C(=O)N[C@@H](C)C(=O)NCC(=O)NCC(=O)N[C@@H](Cc1c[nH]cn1)C(=O)N1CCC[C@H]1C(=O)N[C@@H](CO)C(=O)NC(C)(C)C(=O)N[C@@H](CCCCN)C(=O)N1CCC[C@H]1C(=O)N1CCC[C@H]1C(=O)N1CCC[C@H]1C(=O)N[C@@H](CCCCN)C(N)=O)[C@@H](C)CC)C(=O)O)C(=O)O` [SEQ ID NO: 12, H-Aib-H-G-T-F-T-S-D-L-S-K-L-K[gGlu-gGlu-Palm]-E-E-Q-R-Q-Aib-E-F-I-E-W-L-K-A-G-G-H-P-S-Aib-K-P-P-P-K-NH2], the “mean blood glucose concentration 24 hours post-dose relative to baseline” value in series [1] is on record as “at or close to baseline”. In addition, the “Lag time before increase” value in series [2] was above 45 h. For the same compound, the “Chemical stability [relative purity loss 28 days 40° C.] (%) at pH 4.5” value in series [3] was determined as 11.9%.

For `CCCCCCCCCCCCCCCC(=O)N[C@@H](CCC(=O)N[C@@H](CCC(=O)NCCCC[C@H](NC(=O)[C@H](CC(C)C)NC(=O)[C@H](CCCCN)NC(=O)[C@H](CO)NC(=O)[C@H](CC(C)C)NC(=O)[C@H](CC(=O)O)NC(=O)[C@H](CO)NC(=O)[C@@H](NC(=O)[C@H](Cc1ccccc1)NC(=O)[C@@H](NC(=O)CNC(=O)[C@H](Cc1c[nH]cn1)NC(=O)C(C)(C)NC(=O)[C@@H](N)Cc1c[nH]cn1)[C@@H](C)O)[C@@H](C)O)C(=O)N[C@@H](CCC(=O)O)C(=O)N[C@@H](CCC(=O)O)C(=O)N[C@@H](CCC(N)=O)C(=O)N[C@@H](CCCNC(=N)N)C(=O)N[C@@H](CCC(N)=O)C(=O)NC(C)(C)C(=O)N[C@@H](CCC(=O)O)C(=O)N[C@@H](Cc1ccccc1)C(=O)N[C@H](C(=O)N[C@@H](CCC(=O)O)C(=O)N[C@@H](Cc1c[nH]c2ccccc12)C(=O)N[C@@H](CC(C)C)C(=O)N[C@@H](CCCCN)C(=O)N[C@@H](C)C(=O)N[C@H](C)C(=O)NCC(=O)N1CCC[C@H]1C(=O)N1CCC[C@H]1C(=O)N[C@@H](CO)C(=O)NC(C)(C)C(=O)N[C@@H](CCCCN)C(=O)N1CCC[C@H]1C(=O)N1CCC[C@H]1C(=O)N1CCC[C@H]1C(=O)N[C@@H](CCCCN)C(N)=O)[C@@H](C)CC)C(=O)O)C(=O)O` [SEQ ID NO: 11, H-Aib-H-G-T-F-T-S-D-L-S-K-L-K[gGlu-gGlu-Palm]-E-E-Q-R-Q-Aib-E-F-I-E-W-L-K-A-dAla-G-P-P-S-Aib-K-P-P-P-K-NH2] (H-H[Aib]HGTFTSDLSKLK([γGlu-γGlu-Palmitoyl])EEQRQ[Aib]EFIEWLKA[dA]GPPS[Aib]KPPPK-NH2), in series [1], the “mean blood glucose concentration 24 hours post-dose relative to baseline” value is “still below baseline concentrations” and the “time to normalise hyperglycemia to the non-fasting blood glucose concentrations of lean reference mice” value is at most 6 h. Moreover, the “Lag time before increase” value in series [2] is given as above 45 h. The “Chemical stability [relative purity loss 28 days 40° C.] (%) at pH 4.5” value in series [3] turned out to be 8.8%.

As for `CCCCCCCCCCCCCCCC(=O)N[C@@H](CCC(=O)N[C@@H](CCC(=O)NCCCC[C@H](NC(=O)[C@H](CC(C)C)NC(=O)[C@H](CCCCN)NC(=O)[C@H](CO)NC(=O)[C@H](CC(C)C)NC(=O)[C@H](CC(=O)O)NC(=O)[C@H](CO)NC(=O)[C@@H](NC(=O)[C@H](Cc1ccccc1)NC(=O)[C@@H](NC(=O)CNC(=O)[C@H](Cc1c[nH]cn1)NC(=O)C(C)(C)NC(=O)[C@@H](N)Cc1c[nH]cn1)[C@@H](C)O)[C@@H](C)O)C(=O)N[C@@H](CCC(=O)O)C(=O)N[C@@H](CCC(=O)O)C(=O)N[C@@H](CCC(N)=O)C(=O)N[C@@H](CCCNC(=N)N)C(=O)N[C@@H](CCC(N)=O)C(=O)NC(C)(C)C(=O)N[C@@H](CCC(=O)O)C(=O)N[C@@H](Cc1ccccc1)C(=O)N[C@H](C(=O)N[C@@H](CCC(=O)O)C(=O)N[C@@H](Cc1c[nH]c2ccccc12)C(=O)N[C@@H](CC(C)C)C(=O)N[C@@H](CCCCN)C(=O)N[C@@H](C)C(=O)N[C@H](C)C(=O)NCC(=O)N[C@@H](Cc1c[nH]cn1)C(=O)N1CCC[C@H]1C(=O)N[C@@H](CO)C(=O)NC(C)(C)C(=O)N[C@@H](CCCCN)C(=O)N1CCC[C@H]1C(=O)N1CCC[C@H]1C(=O)N1CCC[C@H]1C(=O)N[C@@H](CCCCN)C(N)=O)[C@@H](C)CC)C(=O)O)C(=O)O` [SEQ ID NO: 13, H-Aib-H-G-T-F-T-S-D-L-S-K-L-K[gGlu-gGlu-Palm]-E-E-Q-R-Q-Aib-E-F-I-E-W-L-K-A-dAla-G-H-P-S-Aib-K-P-P-P-K-NH2] (H-H[Aib]HGTFTSDLSKLK([γGlu-γGlu-Palmitoyl])EEQRQ[Aib]EFIEWLKA[dA]GHPS[Aib]KPPPK-NH2), the “mean blood glucose concentration 24 hours post-dose relative to baseline” value in series [1] is on record as “at or close to baseline”. Further, the “Lag time before increase” value in series [2] is given as above 45 h. For the same compound, in series [3], the “Chemical stability [relative purity loss 28 days 40° C.] (%) at pH 4.5” value was found to be 10.5%.

As to `CCCCCCCCCCCCCCCC(=O)N[C@@H](CCC(=O)N[C@@H](CCC(=O)NCCCC[C@H](NC(=O)[C@H](CC(C)C)NC(=O)[C@H](CCCCN)NC(=O)[C@H](CO)NC(=O)[C@H](CC(C)C)NC(=O)[C@H](CC(=O)O)NC(=O)[C@H](CO)NC(=O)[C@@H](NC(=O)[C@H](Cc1ccccc1)NC(=O)[C@@H](NC(=O)CNC(=O)[C@H](Cc1c[nH]cn1)NC(=O)C(C)(C)NC(=O)[C@@H](N)Cc1c[nH]cn1)[C@@H](C)O)[C@@H](C)O)C(=O)N[C@@H](CCC(=O)O)C(=O)N[C@@H](CCC(=O)O)C(=O)N[C@@H](CCC(N)=O)C(=O)N[C@@H](CCCNC(=N)N)C(=O)N[C@@H](CCC(N)=O)C(=O)N[C@@H](CCCCN)C(=O)N[C@@H](CCC(=O)O)C(=O)N[C@@H](Cc1ccccc1)C(=O)N[C@H](C(=O)N[C@@H](CCC(=O)O)C(=O)N[C@@H](Cc1c[nH]c2ccccc12)C(=O)N[C@@H](CC(C)C)C(=O)N[C@@H](CCCCN)C(=O)N[C@@H](C)C(=O)N[C@H](C)C(=O)NCC(=O)N[C@@H](Cc1c[nH]cn1)C(=O)N1CCC[C@H]1C(=O)N[C@@H](CO)C(=O)NC(C)(C)C(=O)N[C@@H](CCCCN)C(=O)N1CCC[C@H]1C(=O)N1CCC[C@H]1C(=O)N1CCC[C@H]1C(=O)N[C@@H](CCCCN)C(N)=O)[C@@H](C)CC)C(=O)O)C(=O)O` [SEQ ID NO: 7, H-Aib-H-G-T-F-T-S-D-L-S-K-L-K[gGlu-gGlu-Palm]-E-E-Q-R-Q-K-E-F-I-E-W-L-K-A-dAla-G-H-P-S-Aib-K-P-P-P-K-NH2] (H-H[Aib]HGTFTSDLSKLK([γGlu-γGlu-Palmitoyl])EEQRQKEFIEWLKA[dA]GHPS[Aib]KPPPK-NH2), in series [1], the “mean blood glucose concentration 24 hours post-dose relative to baseline” value is reported as “at baseline” and the “time to normalise hyperglycemia to the non-fasting blood glucose concentrations of lean reference mice” value was at most 6 h. In series [2], the “Lag time before increase” value was above 45 h. Besides, the “Chemical stability [relative purity loss 28 days 40° C.] (%) at pH 4.5” value in series [3] turned out to be 8.1%.
